{"source": "patent US20160176919A1", "about": "“CELL SPECIFIC LABELING OF NEWLY SYNTHESIZED PROTEINS” (OREGON HEALTH & SCIENCE UNIVERSITY, priority 2014, published 2016)", "key": {"Hela cells": {"system": "Hela cells", "assay": "Identifying the nascent proteome in Hela cells using OP-puro (click chemistry with biotin azide, NeutrAvidin affinity purification, Western blot/silver stain, MS/MS)", "assay_type": "cell-based, human", "description": "FIG. 3 is a set of two images of gels that show selective enrichment of newly synthesized proteins in Hela cells treated with OP-puro relative to those treated with puromycin. Hela cells were treated with either 50 μM OP-puro or puro (as indicated) for one hour. Cells were then harvested in PBS+1% SDS (sodium dodecyl sulfate) and lysed. Lysates were diluted in 0.1% SDS and incubated with biotin azide using a click reaction for one hour. Biotinylated proteins were affinity purified using NeutrAvidin agarose beads. Eluted proteins were resolved using a 4-12% gradient SDS-PAGE gel and detected by either Western blot with streptavidin-HRP (left gel) or by silver stain (right gel). The lanes reflect input (I), supernatant (S), or pull-down (P) as indicated.\nOP-puro can identify newly synthesized proteins in a defined timeframe in mammalian cells grown in culture. Newly synthesized proteins were identified in Hela cells using OP-puro, followed by click chemistry, affinity purification, and MS/MS analysis. OP-puro was synthesized according to Liu et al, 2012 supra.\nTo prepare samples for MS/MS analysis, the captured biotinylated proteins from the OP-puro and puro (used as a background control) treated cells were alkylated and digested on the agarose beads using trypsin. The peptides were analyzed using a capillary HPLC system coupled online with an LTQ orbitrap mass spectrometer. […] These peptides identified 530 different human proteins, which represents ˜5% of the total Hela proteome (Nagaraj et al 2011 supra)."}, "[1]": {"assay": "Stability of PhAc-OP-puro in mouse plasma by LCMS", "assay_type": "in vitro ADME", "details": "in vitro, for up to 40 min", "description": "FIG. 6 is a plot of the results of incubating PhAc-OP-puro in mouse plasma for the indicated period of time. Stability of PhAc-OP-puro was monitored by liquid chromatography mass spectrometry.\nAs shown above, PhAc-OP-puro is stable in cell culture and is not converted to OP-puro in wild type cells. To use PhAc-OP-puro in an animal system such as mice, the in vitro stability of PhAc-OP-puro in plasma should be determined. Plasma typically contains high esterase activity that could result in cleavage of the carbamate linkage in PhAc-OP-puro. Cleavage of PhAc-OP-puro at the carbamate linkage would generate OP-puro, and therefore would not allow use of the disclosed method in intact mice. While there are several examples of drugs containing carbamates (Chaturvedi D, Tetrahedron 68, 15 (2012); incorporated by reference herein), it is unpredictable whether or not a particular carbamate is resistant to esterases in plasma.\nThe potential esterase-dependent metabolism of PhAc-OP-puro in mouse plasma was assessed by liquid chromatography mass spectrometry (LCMS). PhAc-OP-puro was determined to be stable in mouse plasma for up to 40 min (FIG. 6)."}, "[2]": {"system": "HEK293T cells transfected with PGA-IRES-GFP or control plasmid", "assay": "Deblocking of PhAc-OP-puro by PGA in HEK 293T cells transfected with PGA-IRES-GFP or control plasmid (biotin azide click, Streptavidin-HRP dot blot/Western blot)", "assay_type": "cell-based, human", "description": "FIG. 4A is a dot blot and a bar graph showing HEK293T cells transfected with either a PGA IRES GFP or a control plasmid (as indicated) using calcium phosphate transfection. Twenty-four hours after transfection, cells were treated with 5 or 50 μM of DMSO (negative control), OP-puro, or PhAc-OP-puro as indicated for 30 minutes. Cells were harvested in PBS+1% SDS. Lysates were diluted 10× and incubated with biotin azide under click reaction conditions for one hour. Lysates were spotted onto nitrocellulose and biotinylated proteins detected with Streptavidin-HRP (top panel). Dot intensity was quantified using Image) and graphed (bottom panel).\nFIG. 4B is a set of two images of gels showing proteins from three of the samples described in FIG. 4A resolved by 4-12% gradient SDS-PAGE and detected by Western blot with Streptavidin-HRP (left panel) or Ponceau S staining (right panel) Bands marked with an asterisk are endogenous cellular biotinylated proteins.\nIn E. coli, PGA is expressed as a precursor protein containing a signal sequence that targets it to the bacterial periplasm, where it is processed and activated (Kasche et al, Biochem Biophys Acta 1433, 76 (1999); incorporated by reference herein). Previous studies, however, have shown that by removing the signal sequence, PGA can be expressed in the cytoplasm of the methylotrophic yeast, Pichia pastoris (Maresova H et al, BMC Biotechnol 10, 7 (2010); incorporated by reference herein). Importantly, this cytoplasmic variant of PGA was as active as wild type (WT) PGA expressed in bacteria (Maresova H et al, 2010 supra). However, to date, no one had shown whether or not PGA could be expressed in mammalian cells or any cells derived from a multicellular organism. A construct (PGA-IRES-GFP) was the designed, the construct comprising a variant of PGA lacking the signal sequence described above, and an IRES-GFP for co-cistronic expression of GFP to identify transfected cells.\nThe incorporation of OP-puro into newly synthesized proteins was detected using click chemistry with biotin azide. […] (FIG. 4A)."}, "[3]": {"system": "HEK 293T cells transfected with PGA-IRES-GFP", "assay": "Cell-specific labeling of newly synthesized proteins in single HEK 293T cells (click chemistry with Alexa Fluor-568 azide, fluorescence microscopy)", "assay_type": "cell-based, human", "details": "5 μM, 30 min", "description": "FIG. 5A is a set of 12 images of HEK 293T cells transfected with PGA-IRES-GFP or controls as indicated using calcium phosphate transfection. In two of the conditions, PGA-IRES-GFP transfected cells were mixed with nontransfected cells such that the total population of transfected cells was 5%. At a timepoint 24 hours post transfection, cells were treated with either a DMSO control or 5 μM PhAc-OP-puro for 30 minutes as indicated. Cells were then fixed with methanol and nascent protein synthesis detected by click chemistry with Alexa Fluor-568 azide. After click chemistry, cells were labeled with an antibody specific for GFP. Total cells were detected by DAPI.\nIn cells treated with PhAc-OP-puro (5 μM, 30 min), labeling of newly synthesized proteins (OP-puro-tagged peptides) is detected in PGA-expressing cells (identified by GFP) (FIG. 5A). The amount of labeling appeared to correlate with the expression levels of PGA as determined by comparing the fluorescence intensity of the OP-puro tagged peptides to the fluorescence intensity of GFP."}, "[4]": {"details": "OP-puro treated Hela cells, puro as background control"}}, "data": [{"smiles": "C#CCOc1ccc(C[C@H](N)C(=O)N[C@H]2[C@@H](O)[C@H](n3cnc4c(N(C)C)ncnc43)O[C@@H]2CO)cc1", "note": "[OP-puro, O-propargyl puromycin]", "values": [{"measurement": "biotinylated proteins in NeutrAvidin eluates (Western blot with streptavidin-HRP)", "setting": "Hela cells; Hela cells, 50 μM, one hour", "value": "presence of biotinylated proteins"}, {"measurement": "fraction of the total Hela proteome represented by identified proteins", "setting": "Hela cells; OP-puro treated Hela cells", "value": "~5", "unit": "%"}, {"measurement": "different human proteins identified", "setting": "Hela cells; [4]", "value": 530}, {"measurement": "peptides with unique amino acid sequences identified by MS/MS", "setting": "Hela cells; [4]", "value": "1,600"}]}, {"smiles": "C#CCOc1ccc(C[C@H](NC(=O)OCc2ccc(NC(=O)Cc3ccccc3)cc2)C(=O)NC2C(CO)OC(n3cnc4c(N(C)C)ncnc43)C2O)cc1", "note": "(stereo partly shown) [PhAc-OP-puro]", "values": [{"measurement": "stability in mouse plasma", "setting": "[1]", "value": "stable"}, {"measurement": "incorporation into newly synthesized proteins (biotin signal)", "setting": "[2]; HEK 293T cells transfected with PGA-IRES-GFP, 5 μM, 30 min", "value": "prominent biotin signal"}, {"measurement": "time for complete conversion to OP-puro", "setting": "[2]; PGA-IRES-GFP transfected HEK 293T cells, 5 μM", "value": "≤ 30", "unit": "min"}, {"measurement": "induction of the unfolded protein response", "setting": "[2]; PGA-IRES-GFP transfected HEK 293T cells, 5 μM, 30 min", "value": "no observed induction"}, {"measurement": "signal intensity relative to OP-puro control", "setting": "[2]; PGA-IRES-GFP transfected HEK 293T cells, 5 μM, 30 min, versus control transfected cells with OP-puro 5 μM", "value": "the same as that of control transfected cells treated with OP-puro"}, {"measurement": "activity (labeling of proteins) in the absence of PGA", "setting": "[2]; control transfected HEK 293T cells, up to 50 μM", "value": "completely inert"}, {"measurement": "labeling of newly synthesized proteins (OP-puro-tagged peptides) in PGA-expressing cells", "setting": "[3]; PGA-expressing cells identified by GFP", "value": "detected"}, {"measurement": "labeling of newly synthesized proteins in cells not expressing PGA", "setting": "[3]; cells not expressing PGA", "value": "No labeling was detected"}]}, {"smiles": "COc1ccc(C[C@H](N)C(=O)N[C@H]2[C@@H](O)[C@H](n3cnc4c(N(C)C)ncnc43)O[C@@H]2CO)cc1", "note": "[puro, puromycin]", "values": [{"measurement": "silver stain of NeutrAvidin eluates", "setting": "Hela cells; Hela cells, 50 μM, one hour", "value": "no detectable staining"}]}]}
